A short description of experiment [1]: Inhibition of full length Caenorhabditis elegans NMT expressed in Escherichia coli incubated for 10 mins by liquid scintillation analysis.
Experiment [2] in a line: Inhibition of full length Brugia malayi NMT expressed in Escherichia coli incubated for 10 mins by liquid scintillation analysis.
Experiment [3] is described as follows: Inhibition of recombinant Leishmania donovani NMT.
Experiment [4] deals with T1, Glycylpeptide N-tetradecanoyltransferase (Plasmodium falciparum, UniProt Q9U419).
T1 sequence (Q9U419 whole entry): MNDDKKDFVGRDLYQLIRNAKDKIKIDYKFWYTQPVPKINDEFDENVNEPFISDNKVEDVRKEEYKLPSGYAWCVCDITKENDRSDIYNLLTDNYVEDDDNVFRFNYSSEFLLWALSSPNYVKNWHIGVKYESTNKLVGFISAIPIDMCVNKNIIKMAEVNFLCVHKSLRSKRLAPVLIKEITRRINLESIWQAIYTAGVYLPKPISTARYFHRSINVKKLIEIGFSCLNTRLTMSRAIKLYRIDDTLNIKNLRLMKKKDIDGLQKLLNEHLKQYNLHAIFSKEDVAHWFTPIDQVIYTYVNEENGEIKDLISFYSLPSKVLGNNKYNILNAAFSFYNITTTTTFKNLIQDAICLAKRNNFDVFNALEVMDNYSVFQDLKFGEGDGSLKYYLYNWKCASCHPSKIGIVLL
The experiment can be described thus: Binding affinity to Plasmodium falciparum NMT assessed as inhibition constant using GSNKSKPKDASQRRR-NH2 as peptide substrate.

The target in experiment [5] is T2, Glycylpeptide N-tetradecanoyltransferase (Plasmodium vivax (strain Salvador I), UniProt A5K1A2).
T2 sequence (A5K1A2 whole entry): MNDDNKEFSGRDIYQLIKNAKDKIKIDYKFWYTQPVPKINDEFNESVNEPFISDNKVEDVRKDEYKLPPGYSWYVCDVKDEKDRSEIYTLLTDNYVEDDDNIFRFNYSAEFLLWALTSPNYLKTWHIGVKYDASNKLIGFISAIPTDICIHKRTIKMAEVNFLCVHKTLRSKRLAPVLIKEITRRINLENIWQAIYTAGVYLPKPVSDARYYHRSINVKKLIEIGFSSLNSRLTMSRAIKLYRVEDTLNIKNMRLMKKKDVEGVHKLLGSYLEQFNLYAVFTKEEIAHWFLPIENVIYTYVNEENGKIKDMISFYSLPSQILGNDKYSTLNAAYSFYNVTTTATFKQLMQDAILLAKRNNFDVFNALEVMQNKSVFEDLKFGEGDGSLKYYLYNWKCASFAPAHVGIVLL
In words: Binding affinity to Plasmodium vivax NMT assessed as inhibition constant using YnMyr-CoA as substrate.

Experiment [6] deals with T1, Glycylpeptide N-tetradecanoyltransferase. The experiment can be described thus: Inhibition of recombinant Plasmodium falciparum NMT.
The target of experiment [7] is T3, Glycylpeptide N-tetradecanoyltransferase 1 (Homo sapiens, UniProt P30419).
T3 sequence (P30419 whole entry): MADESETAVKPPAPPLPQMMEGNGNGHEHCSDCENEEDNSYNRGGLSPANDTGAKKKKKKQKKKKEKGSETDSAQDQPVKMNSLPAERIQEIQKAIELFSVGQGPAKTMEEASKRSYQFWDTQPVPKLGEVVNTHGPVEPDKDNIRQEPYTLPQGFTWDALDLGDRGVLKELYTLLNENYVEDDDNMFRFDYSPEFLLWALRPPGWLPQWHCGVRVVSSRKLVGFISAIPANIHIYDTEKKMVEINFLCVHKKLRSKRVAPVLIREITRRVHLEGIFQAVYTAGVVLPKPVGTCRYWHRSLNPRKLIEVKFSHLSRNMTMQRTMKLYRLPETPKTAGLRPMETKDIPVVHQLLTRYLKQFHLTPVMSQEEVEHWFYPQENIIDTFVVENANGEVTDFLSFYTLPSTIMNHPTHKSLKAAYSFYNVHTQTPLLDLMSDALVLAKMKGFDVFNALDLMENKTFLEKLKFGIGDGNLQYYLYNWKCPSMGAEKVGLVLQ
The experiment can be described thus: Inhibition of recombinant human NMT.

The target of experiment [8] is T2, Glycylpeptide N-tetradecanoyltransferase. In words: Inhibition of recombinant Plasmodium vivax NMT.

Take `Cc1nn(C)c(CC(C)C)c1NS(=O)(=O)c1c(Cl)cc(-c2cccc(C(C)(C)N)c2)cc1Cl`: the values for the IC50 in experiment [1] and in experiment [2] were 10 nM and 2000 nM, respectively.

For the molecule `CCOC(=O)c1cnc2ccc(OCc3ccc(N4CCNCC4)nc3)cc2c1SCCC#N`, the IC50 (as a rule, the concentration that inhibits the measured activity by half) in experiment [3] is 24 nM.

In the case of `Cc1nn(C)c(C)c1Cc1nnc(-c2sc3ccccc3c2NC2CCNCC2)o1`, the Ki – broadly, a dissociation constant, usually derived from enzyme kinetics or from competition with a known ligand – in experiment [4] was 8 nM; in experiment [5] it was 2.7 nM.

`NCCCCCCCCCC(=O)N[C@@H](CO)C(=O)N[C@@H](CCCCN)C(=O)NCCC1CCCCC1`: the IC50 is 24300 nM in experiment [6], 60 nM in experiment [7] and 680 nM in experiment [8].

The values are drawn from ChEMBL document CHEMBL5634069, “Exploring N-myristoyltransferase as a promising drug target against parasitic neglected tropical diseases” (Eur J Med Chem, 2023).
